Laboratory results published in US9414596B2, “Metalloenzyme inhibitor compounds” (Viamet Pharmaceuticals, Inc., priority 2012, dated 2016).
Converted amounts (≈) assume the structure as drawn.

Tested on: Septoria tritici (ATCC 26517)
Test: Minimum Inhibitory Concentration (MIC) (Septoria tritici), CLSI-based microdilution
Format: cell-based
Conditions: Zymoseptoria tritici, ATCC26517, 168 h, S. tritici ATCC 26517; seven days at 22° C. in the dark; MIC = 50% reduction in growth, visual; read-out: Septoria MIC Rating
Experimental: B. Minimum Inhibitory Concentration (MIC) (Septoria tritici)
Compounds of the present disclosure were assessed for their ability to inhibit the growth of a common strain of the fungal plant pathogen Septoria tritici (ATCC 26517) using a procedure based on a Clinical and Laboratory Standards Institute (CLSI) microdilution assay protocol for filamentous fungi.
Stock solutions of the test compounds and standards were prepared in DMSO at 6400 μg/mL. Each stock solution was used to prepare a 2-fold dilution series ranging from 16 to 0.016 μg/mL (total of 11 compound concentrations) in RPMI-1640 (Roswell Park Memorial Institute) medium containing 3-(N-morpholino)propanesulfonic acid (MOPS) buffer and 2% DMSO. A 100 μL aliquot of the dilutions was added to columns 1 (16 μg/mL compound) through 11 (0.016 μg/mL compound) of a 96-well microtiter plate. This format was replicated in a second row of the microtiter plate. Thus, each microtiter plate could include 11 concentrations of four test or control compounds replicated twice. A 100 μL aliquot of RPMI-1640/MOPS/2% DMSO medium was added to column 12 (no compound control) of the microtiter plate.
A fresh culture of S. tritici was used to prepare a solution of approximately 5×10^4 colony-forming units per milliliter (cfu/mL) in RPMI/MOPS medium without DMSO. A 100 μL aliquot of this solution was added to all 96 wells in the microtiter plate. […] The assay plates were incubated at 22° C. for seven days in the dark without shaking.

| Compound | MIC [µg/mL] |
| --- | --- |
| N#Cc1ccc(-c2ccc(C(F)(F)C(O)(Cn3cnnn3)c3ccc(F)cc3F)nc2)cc1 (stereo not shown) [Example 1, 4-(6-(2-(2,4-Difluorophenyl)-1,1-difluoro-2-hydroxy-3-(1H-tetrazol-1-yl)propyl)pyridin-3-yl)benzonitrile] | < 0.5 |
| N#Cc1cccc(-c2ccc(C(F)(F)C(O)(Cn3cnnn3)c3ccc(F)cc3F)nc2)c1 (stereo not shown) [Example 3, 3-(6-(2-(2,4-Difluorophenyl)-1,1-difluoro-2-hydroxy-3-(1H-tetrazol-1-yl)propyl)pyridin-3-yl)benzonitrile] | 1.5 to 4 (≈ 3.3 to 8.8 µM) |
| CC(C)Oc1ccc(-c2ccc(C(F)(F)C(O)(Cn3cnnn3)c3ccc(F)cc3F)nc2)cc1 (stereo not shown) [Example 4, 2-(2,4-Difluorophenyl)-1,1-difluoro-1-(5-(4-isopropoxyphenyl)pyridin-2-yl)-3-(1H-tetrazol-1-yl)propan-2-ol] | < 0.5 |
| OC(Cn1cnnn1)(c1ccc(F)cc1F)C(F)(F)c1ccc(-c2ccc(F)cc2)cn1 (stereo not shown) [Example 5, 2-(2,4-Difluorophenyl)-1,1-difluoro-1-(5-(4-fluorophenyl)pyridin-2-yl)-3-(1H-tetrazol-1-yl)propan-2-ol] | < 0.5 |
| OC(Cn1cnnn1)(c1ccc(F)cc1F)C(F)(F)c1ccc(-c2cccc(OC(F)(F)F)c2)cn1 (stereo not shown) [Example 6, 2-(2,4-Difluorophenyl)-1,1-difluoro-3-(1H-tetrazol-1-yl)-1-(5-(3-(trifluoromethoxy)phenyl)-pyridin-2-yl)propan-2-ol] | 1.5 to 4 (≈ 2.92 to 7.79 µM) |
| OC(Cn1cnnn1)(c1ccc(F)cc1F)C(F)(F)c1ccc(-c2ccc(OC(F)(F)F)cc2)cn1 (stereo not shown) [Example 7, 2-(2,4-Difluorophenyl)-1,1-difluoro-3-(1H-tetrazol-1-yl)-1-(5-(4-(trifluoromethoxy)phenyl)-pyridin-2-yl)propan-2-ol] | < 0.5 |
| OC(Cn1cnnn1)(c1ccc(F)cc1F)C(F)(F)c1ccc(-c2cccc(Cl)c2)cn1 (stereo not shown) [Example 8, 1-(5-(3-Chlorophenyl)pyridin-2-yl)-2-(2,4-difluorophenyl)-1,1-difluoro-3-(1H-tetrazol-1-yl)propan-2-ol] | 0.5 to 1.5 (≈ 1.08 to 3.23 µM) |
| OC(Cn1cnnn1)(c1ccc(F)cc1F)C(F)(F)c1ccc(-c2ccc(Cl)cc2)cn1 (stereo not shown) [Example 9, 1-(5-(4-Chlorophenyl)pyridin-2-yl)-2-(2,4-difluorophenyl)-1,1-difluoro-3-(1H-tetrazol-1-yl)propan-2-ol] | < 0.5 |
| OC(Cn1cnnn1)(c1ccc(F)cc1F)C(F)(F)c1ccc(-c2cc(F)ccc2F)cn1 (stereo not shown) [Example 10, 2-(2,4-Difluorophenyl)-1-(5-(2,5-difluorophenyl)pyridin-2-yl)-1,1-difluoro-3-(1H-tetrazol-1-yl)propan-2-ol] | < 0.5 |
| OC(Cn1cnnn1)(c1ccc(F)cc1F)C(F)(F)c1ccc(-c2ccc(OCC(F)(F)F)cc2)cn1 (stereo not shown) [Example 11, 2-(2,4-Difluorophenyl)-1,1-difluoro-3-(1H-tetrazol-1-yl)-1-(5-(4-(2,2,2-trifluoroethoxy)phenyl)pyridin-2-yl)propan-2-ol] | < 0.5 |
| OC(Cn1cncn1)(c1ccc(F)cc1F)C(F)(F)c1ccc(-c2ccc(F)cc2)cn1 (stereo not shown) [Example 16, 2-(2,4-Difluorophenyl)-1,1-difluoro-1-(5-(4-fluorophenyl)pyridin-2-yl)-3-(1H-1,2,4-triazol-1-yl)propan-2-ol] | < 0.5 |
| OC(Cn1cncn1)(c1ccc(F)cc1F)C(F)(F)c1ccc(-c2ccc(OC(F)(F)F)cc2)cn1 (stereo not shown) [Example 18, 2-(2,4-Difluorophenyl)-1,1-difluoro-3-(1H-1,2,4-triazol-1-yl)-1-(5-(4-(trifluoromethoxy)phenyl)pyridin-2-yl) propan-2-ol] | < 0.5 |
| OC(Cn1ncnn1)(c1ccc(F)cc1F)C(F)(F)c1ccc(-c2cccc(F)c2)cn1 (stereo not shown) [Example 21] | > 4 |
| OC(Cn1ncnn1)(c1ccc(F)cc1F)C(F)(F)c1ccc(-c2ccc(C(F)(F)F)cc2)cn1 (stereo not shown) [Example 22] | > 4 |
| Oc1ccc(-c2ccc(C(F)(F)C(O)(Cn3cnnn3)c3ccc(F)cc3F)nc2)cc1 (stereo not shown) [Example 23, 4-(6-(2-(2,4-Difluorophenyl)-1,1-difluoro-2-hydroxy-3-(1H-tetrazol-1-yl)propyl)pyridin-3-yl)phenol] | 1.5 to 4 (≈ 3.37 to 8.98 µM) |
| CC(C)c1cccc(-c2ccc(C(F)(F)C(O)(Cn3cnnn3)c3ccc(F)cc3F)nc2)c1 (stereo not shown) [Example 24, 2-(2,4-Difluorophenyl)-1,1-difluoro-1-(5-(3-isopropylphenyl)pyridin-2-yl)-3-(1H-tetrazol-1-yl)propan-2-ol] | 0.5 to 1.5 (≈ 1.06 to 3.18 µM) |
| OC(Cn1cnnn1)(c1ccc(F)cc1F)C(F)(F)c1ccc(-c2ccc(F)c(F)c2)cn1 (stereo not shown) [Example 25, 2-(2,4-Difluorophenyl)-1-(5-(3,4-difluorophenyl)pyridin-2-yl)-1,1-difluoro-3-(1H-tetrazol-1-yl)propan-2-ol] | < 0.5 |
| CC(C)(C)Oc1ccc(-c2ccc(C(F)(F)C(O)(Cn3cnnn3)c3ccc(F)cc3F)nc2)cc1 (stereo not shown) [Example 28, 1-(5-(4-(tert-Butoxy)phenyl)pyridin-2-yl)-2-(2,4-difluorophenyl)-1,1-difluoro-3-(1H-tetrazol-1-yl)propan-2-ol] | < 0.5 |

Further lines, results first:

| MIC [µg/mL] | Compound |
| --- | --- |
| 0.5 to 1.5 (≈ 1.01 to 3.03 µM) | OC(Cn1cnnn1)(c1ccc(F)cc1F)C(F)(F)c1ccc(-c2cccc(OC(F)F)c2)cn1 (stereo not shown) [Example 26, 1-(5-(3-(Difluoromethoxy)phenyl)pyridin-2-yl)-2-(2,4-difluorophenyl)-1,1-difluoro-3-(1H-tetrazol-1-yl)propan-2-ol] |
| < 0.5 | OC(Cn1cnnn1)(c1ccc(F)cc1F)C(F)(F)c1ccc(-c2ccc(SC(F)(F)F)cc2)cn1 (stereo not shown) [Example 27, 2-(2,4-Difluorophenyl)-1,1-difluoro-3-(1H-tetrazol-1-yl)-1-(5-(4-((trifluoromethyl)thio)phenyl)pyridin-2-yl)propan-2-ol] |
| 1.5 to 4 (≈ 3.11 to 8.3 µM) | OC(Cn1cnnn1)(c1ccc(F)cc1F)C(F)(F)c1ccc(-c2ccc(Cl)c(F)c2)cn1 (stereo not shown) [Example 29, 1-(5-(4-Chloro-3-fluorophenyl)pyridin-2-yl)-2-(2,4-difluorophenyl)-1,1-difluoro-3-(1H-tetrazol-1-yl)propan-2-ol] |
| < 0.5 | Oc1cccc(-c2ccc(C(F)(F)C(O)(Cn3cnnn3)c3ccc(F)cc3F)nc2)c1 (stereo not shown) [Example 30, 3-(6-(2-(2,4-Difluorophenyl)-1,1-difluoro-2-hydroxy-3-(1H-tetrazol-1-yl)propyl)pyridin-3-yl)phenol] |
| 0.5 to 1.5 (≈ 1.01 to 3.02 µM) | OC(Cn1cnnn1)(c1ccc(F)cc1F)C(F)(F)c1ccc(-c2cccc(C(F)(F)F)c2)cn1 (stereo not shown) [Example 31, 2-(2,4-Difluorophenyl)-1,1-difluoro-3-(1H-tetrazol-1-yl)-1-(5-(3-(trifluoromethyl)phenyl)pyridin-2-yl)propan-2-ol] |
| 0.5 to 1.5 (≈ 1.05 to 3.16 µM) | O=[N+]([O-])c1ccc(-c2ccc(C(F)(F)C(O)(Cn3cnnn3)c3ccc(F)cc3F)nc2)cc1 (stereo not shown) [Example 32, 2-(2,4-Difluorophenyl)-1,1-difluoro-1-(5-(4-nitrophenyl)pyridin-2-yl)-3-(1H-tetrazol-1-yl)propan-2-ol] |
| 0.5 to 1.5 (≈ 0.952 to 2.86 µM) | O=C(c1ccc(-c2ccc(C(F)(F)C(O)(Cn3cnnn3)c3ccc(F)cc3F)nc2)cc1)C(F)(F)F (stereo not shown) [Example 33, 1-(4-(6-(2-(2,4-Difluorophenyl)-1,1-difluoro-2-hydroxy-3-(1H-tetrazol-1-yl)propyl)pyridin-3-yl)phenyl)-2,2,2-trifluoroethanone] |
| < 0.5 | OC(Cn1cnnn1)(c1ccc(Cl)cc1F)C(F)(F)c1ccc(-c2ccc(OC(F)(F)F)cc2)cn1 (stereo not shown) [Example 34, 2-(4-Chloro-2-fluorophenyl)-1,1-difluoro-3-(1H-tetrazol-1-yl)-1-(5-(4-(trifluoromethoxy)phenyl)pyridin-2-yl)propan-2-ol] |
| < 0.5 | OC(Cn1cnnn1)(c1ccc(F)cc1F)C(F)(F)c1ccc(-c2ccccc2)cn1 (stereo not shown) [Example 35, 2-(2,4-Difluorophenyl)-1,1-difluoro-1-(5-phenylpyridin-2-yl)-3-(1H-tetrazol-1-yl)propan-2-ol] |
| < 0.5 | OC(Cn1cnnn1)(c1ccc(F)cc1F)C(F)(F)c1ccc(-c2ccc(N3CCOCC3)cc2)cn1 (stereo not shown) [Example 36, 2-(2,4-Difluorophenyl)-1,1-difluoro-1-(5-(4-morpholinophenyl)pyridin-2-yl)-3-(1H-tetrazol-1-yl)propan-2-ol] |
| < 0.5 | O=C(Nc1ccc(-c2ccc(C(F)(F)C(O)(Cn3cnnn3)c3ccc(F)cc3F)nc2)cc1)C(F)(F)F (stereo not shown) [Example 37, N-(4-(6-(2-(2,4-Difluorophenyl)-1,1-difluoro-2-hydroxy-3-(1H-tetrazol-1-yl)propyl)pyridin-3-yl)phenyl)-2,2,2-trifluoroacetamide] |
| < 0.5 | OC(Cn1cnnn1)(c1ccc(F)cc1F)C(F)(F)c1ccc(-c2ccc(OC(F)F)cc2)cn1 (stereo not shown) [Example 38, 1-(5-(4-(Difluoromethoxy)phenyl)pyridin-2-yl)-2-(2,4-difluorophenyl)-1,1-difluoro-3-(1H-tetrazol-1-yl)propan-2-ol] |
| < 0.5 | OC(Cn1cnnn1)(c1ccc(F)cc1F)C(F)(F)c1ccc(-c2ccc(SC(F)F)cc2)cn1 (stereo not shown) [Example 40, 1-(5-(4-((Difluoromethyl)thio)phenyl)pyridin-2-yl)-2-(2,4-difluorophenyl)-1,1-difluoro-3-(1H-tetrazol-1-yl)propan-2-ol] |
